# PubChem BioAssay (NCI)
#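 Following 48 hours of exposure in 96-well plates, responses at five concentrations were used to interpolate endpoints linearly. Here, GI50 denotes the concentration required for 50% inhibition of growth. Definition used: TGI = concentration required for complete inhibition of growth.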
# What was measured:
# Experiment in all cases: NCI-60 cell line screen, 48 h
# UO-31 renal = test system: UO-31 renal
# OVCAR-4 ovarian = test system: OVCAR-4 ovarian
# COLO 205 colon = test system: COLO 205 colon
# SK-OV-3 ovarian = test system: SK-OV-3 ovarian
# HL-60(TB) leukemia = test system: HL-60(TB) leukemia
# U251 CNS = test system: U251 CNS
# NCI-H23 lung = test system: NCI-H23 lung
# HT29 colon = test system: HT29 colon
# T-47D breast = test system: T-47D breast
# NCI-H226 lung = test system: NCI-H226 lung
Structure (SMILES),TGI (UO-31 renal),TGI (OVCAR-4 ovarian),TGI (COLO 205 colon),TGI (SK-OV-3 ovarian),TGI (HL-60(TB) leukemia),TGI (U251 CNS),TGI (NCI-H23 lung),TGI (HT29 colon),TGI (T-47D breast),TGI (NCI-H226 lung),GI50 (HT29 colon),GI50 (UO-31 renal),GI50 (OVCAR-4 ovarian),GI50 (T-47D breast),GI50 (COLO 205 colon),GI50 (SK-OV-3 ovarian),GI50 (U251 CNS),GI50 (NCI-H226 lung),GI50 (NCI-H23 lung),GI50 (HL-60(TB) leukemia)
CCc1cc(Cc2ccc(C)c(NC(=O)C(=O)C3C(=O)NC(=O)NC3=O)c2CC)cc(C)c1NC(=O)C(=O)C1C(=O)NC(=O)NC1=O,> 100 µM,> 100 µM,> 100 µM,> 100 µM,> 100 µM,> 100 µM,> 100 µM,,,,,,,,,,,,,
O=C(Cc1ccccc1)NN1C(=O)/C(=C\c2ccccc2O)SC1=Nc1ccccc1,> 100 µM,> 100 µM,> 100 µM,> 100 µM,,> 100 µM,> 100 µM,> 100 µM,> 100 µM,> 100 µM,,,,,,,,,,
O=C1CCC(=O)c2sccc2N1,> 100 µM,> 100 µM,> 100 µM,> 100 µM,> 100 µM,> 100 µM,> 100 µM,> 100 µM,,> 100 µM,,,,,,,,,,
CC(C)(C)Sc1nnc(SC(C)(C)C)c2c(=O)[nH]nc(SC(C)(C)C)c12,19.7 µM,10.5 µM,25.2 µM,32.5 µM,16.1 µM,19.7 µM,22.9 µM,19.1 µM,,28.5 µM,,,,,,,,,,
CC(=O)Nc1ccc(-c2nnc(SCC(=O)Nc3ccc(Cl)cc3)o2)cc1,33.6 µM,55.9 µM,34.6 µM,47.1 µM,40.1 µM,12.9 µM,18.2 µM,23.2 µM,,37 µM,,,,,,,,,,
CCCCCCCCCCSC(=N)N,12.4 µM,17.6 µM,2.91 µM,19.9 µM,,6.72 µM,21.3 µM,2.84 µM,4.55 µM,23.2 µM,1.42 µM,2.61 µM,3.58 µM,2.04 µM,1.55 µM,7.38 µM,2.37 µM,6.09 µM,6.38 µM,
COc1cc2c(cc1OCCCOc1ccc(-c3nc4ccc(N5CCN(C)CC5)cc4[nH]3)cc1)N=C[C@@H]1CCCN1C2=O,,17.2 µM,> 100 µM,22.8 µM,< 0.01 µM,5.07 µM,< 0.01 µM,> 100 µM,15 µM,< 0.01 µM,< 0.01 µM,,< 0.01 µM,< 0.01 µM,< 0.01 µM,< 0.01 µM,< 0.01 µM,< 0.01 µM,< 0.01 µM,< 0.01 µM
O=C(c1ccc2ccccc2c1)c1c(C(F)(F)F)n([O-])c2ccc(F)cc2[n+]1=O,,3.22 µM,0.425 µM,5.05 µM,2.23 µM,2.81 µM,1.91 µM,3.02 µM,4.05 µM,3.97 µM,1.36 µM,,1.67 µM,1.56 µM,0.188 µM,2.16 µM,1.47 µM,1.96 µM,0.574 µM,0.266 µM
CC(C)N1C(C)[C@@H](c2ccccc2)O[P@]1(=O)CC1=CCCCC1 (stereo not given in full),> 100 µM,,> 100 µM,> 100 µM,57.4 µM,> 100 µM,> 100 µM,> 100 µM,,> 100 µM,,,,,,,,,,
